According to article PMC11995724, “Antibiotic target discovery by integrated phenotypic and activity-based profiling of electrophilic fragments” (Cell chemical biology, 2025):
Counter-ions that a name gives are not always drawn.

Assay: in vitro
Conditions: human, hek293t cells

| SMILES | viability at 48 h, 25 µM [%] |
| --- | --- |
| C=CC(=O)N1CCC(C(=O)N2CCC(OC)(C(F)(F)F)CC2)CC1 [3-E08, 1-{4-[4-methoxy-4-(trifluoromethyl)piperidine-1-carbonyl]piperidin-1-yl}prop-2-en-1-one] | 98.2 |
| CN(C(=O)CCl)C(c1ccc(Cl)cc1)C(F)(F)F (stereo not shown) [7-J16, 2-chloro-N-[1-(4-chlorophenyl)-2,2,2-trifluoroethyl]-N-methylacetamide] | 0.718 |
| N#CC(=Cc1ccc(Cl)cc1)C(=O)Nc1nccs1 [8-C11, 3-(4-chlorophenyl)-2-cyano-N-(1,3-thiazol-2-yl)prop-2-enamide] | 79 |
| CC(NC(=O)CCl)c1ccc2ncsc2c1 (stereo not shown) [6-A18, N-[1-(1,3-benzothiazol-6-yl)ethyl]-2-chloroacetamide] | 2.3 |
| COc1ccc(Cl)cc1N1C(=O)C=CC1=O [10-K10, 1-(5-chloro-2-methoxyphenyl)-2,5-dihydro-1H-pyrrole-2,5-dione] | 81.3 |
| N#Cc1ccc2c(c1)CCN2C(=O)CCl [5-N09, 1-(2-chloroacetyl)-2,3-dihydro-1H-indole-5-carbonitrile] | 0.856 |
| C=CC(=O)NCC1CSCCS1 (stereo not shown) [1-K07, N-[(1,4-dithian-2-yl)methyl]prop-2-enamide] | 78.1 |
| CC(Cl)C(=O)NCCS(=O)(=O)c1cccs1 (stereo not shown) [6-N15, 2-chloro-N-[2-(thiophene-2-sulfonyl)ethyl]propanamide] | 105 |
| Cc1cccc2nc(C3CCN(C(=O)C(C)Cl)CC3)oc12 (stereo not shown) [7-M12, 2-chloro-1-[4-(7-methyl-1,3-benzoxazol-2-yl)piperidin-1-yl]propan-1-one] | 79.6 |
| COc1ccc(NC(C)=O)cc1NC(=O)CCl [5-G03, 2-chloro-N-(5-acetamido-2-methoxyphenyl)acetamide] | 1.44 |
| COC(=O)c1ccc(C=C(C#N)C(=O)NC(C)C)n1C [9-P12, methyl 5-{2-cyano-2-[(propan-2-yl)carbamoyl]eth-1-en-1-yl}-1-methyl-1H-pyrrole-2-carboxylate] | 115 |
| N#CC(C(=O)NC1CCCCC1)=C1N=C(N)c2ccccc21 [9-N06, 2-(3-amino-1H-isoindol-1-ylidene)-2-cyano-N-cyclohexylacetamide] | 80.2 |
| C=CC(=O)N1CCC(C(=O)NC2CCN(C(=O)C(C)(C)C)CC2)CC1 [3-I21, N-[1-(2,2-dimethylpropanoyl)piperidin-4-yl]-1-(prop-2-enoyl)piperidine-4-carboxamide] | 52.8 |
| C=CC(=O)N1CCC(C(=O)NCc2cc(=O)n3ccccc3n2)CC1 [3-L12, N-({4-oxo-4H-pyrido[1,2-a]pyrimidin-2-yl}methyl)-1-(prop-2-enoyl)piperidine-4-carboxamide] | 82.7 |
| CC(Cl)C(=O)NC1CCC(C)(C)c2ccccc21 (stereo not shown) [6-H21, 2-chloro-N-(4,4-dimethyl-1,2,3,4-tetrahydronaphthalen-1-yl)propanamide] | 100 |
| Cc1cc(Cl)ccc1OC(C)C(=O)N1CCSSCC1 (stereo not shown) [10-J21, 2-(4-chloro-2-methylphenoxy)-1-(1,2,5-dithiazepan-5-yl)propan-1-one] | 110 |
| Cc1ccc(C=C(C#N)C(=O)Nc2ccc(C(=O)N(C)C)cc2)o1 [9-P14, 4-[2-cyano-3-(5-methylfuran-2-yl)prop-2-enamido]-N,N-dimethylbenzamide] | 119 |
| COc1ccc2ccccc2c1C=C(C#N)C(=O)NC1CCCCC1 [8-P18, 2-cyano-N-cyclohexyl-3-(2-methoxynaphthalen-1-yl)prop-2-enamide] | 66.4 |
| CC(Cl)C(=O)N1Cc2ccoc2CC(C)(C)C1 (stereo not shown) [5-P21, 2-chloro-1-{7,7-dimethyl-4H,5H,6H,7H,8H-furo[3,2-c]azepin-5-yl}propan-1-one] | 132 |
| CC(C)(C)c1ccc(C=C(C#N)C(=O)Nc2ccc(C(=O)O)cc2)cc1 [9-I21, 4-[3-(4-tert-butylphenyl)-2-cyanoprop-2-enamido]benzoic acid] | 128 |
| Cc1ccc(NC(=O)N2CCN(C(=O)C=CCN(C)C)CC2)cc1 [10-H16, 4-[4-(dimethylamino)but-2-enoyl]-N-(4-methylphenyl)piperazine-1-carboxamide] | 94.2 |
| Cc1ccc(NC(=O)N2CCSSCC2)c(C)c1 [10-F11, N-(2,4-dimethylphenyl)-1,2,5-dithiazepane-5-carboxamide] | 102 |
| CC(Cl)C(=O)N1CCN(Cc2cc(=O)n3ccsc3n2)CC1 (stereo not shown) [6-P17, 7-{[4-(2-chloropropanoyl)piperazin-1-yl]methyl}-5H-[1,3]thiazolo[3,2-a]pyrimidin-5-one] | 113 |
| CC(Cl)C(=O)Nc1ccc(F)c(F)c1F (stereo not shown) [4-O08, 2-chloro-N-(2,3,4-trifluorophenyl)propanamide] | 88.8 |
| COCCNC(=O)C(C#N)=Cc1ccc(O)cc1 [9-D22, 2-cyano-3-(4-hydroxyphenyl)-N-(2-methoxyethyl)prop-2-enamide] | 110 |
| N#CC(=Cc1cnc2ccccn12)C(=O)NCc1ccccc1 [9-P18, N-benzyl-2-cyano-3-{imidazo[1,2-a]pyridin-3-yl}prop-2-enamide] | 127 |

| SMILES | viability at 48 h, 25 µM [%] |
| --- | --- |
| O=C1NC(=O)c2cc(NC(=O)N3CCSSCC3)ccc21 [10-K22, N-(1,3-dioxo-2,3-dihydro-1H-isoindol-5-yl)-1,2,5-dithiazepane-5-carboxamide] | 98.8 |
| O=C(CCl)Nc1ncc[nH]1 [6-B03, 2-chloro-N-(1H-imidazol-2-yl)acetamide hydrochloride] | 37.4 |
| C=CC(=O)N1CC(C)c2ccc(S(N)(=O)=O)cc21 (stereo not shown) [3-L16, 3-methyl-1-(prop-2-enoyl)-2,3-dihydro-1H-indole-6-sulfonamide] | 1.43 |
| CC(=O)Nc1ccc(C(=O)CCl)cc1 [10-O12, N-[4-(2-chloroacetyl)phenyl]acetamide] | 12.6 |
| CC(Cl)C(=O)Nc1cccc(Cl)c1 (stereo not shown) [5-H22, 2-chloro-N-(3-chlorophenyl)propanamide] | 78 |
| C=CC(=O)Nc1ccc(C(=O)N(C)C[C@@H]2CCC(=O)N2)cc1 [2-L18, N-methyl-N-{[(2S)-5-oxopyrrolidin-2-yl]methyl}-4-(prop-2-enamido)benzamide] | 98.8 |
| Cc1cc(C(=O)CCl)c(C)s1 [10-K16, 2-chloro-1-(2,5-dimethylthiophen-3-yl)ethan-1-one] | 0.769 |
| C=CC(=O)Nc1cc(NC(=O)C2(OC)CCOC2)ccc1F (stereo not shown) [3-D05, N-[4-fluoro-3-(prop-2-enamido)phenyl]-3-methoxyoxolane-3-carboxamide] | 75.8 |
| C=CC(=O)NCc1cccc(C(C)(F)F)c1 [3-O22, N-{[3-(1,1-difluoroethyl)phenyl]methyl}prop-2-enamide] | 136 |
| O=C(CCl)Nc1ccc(OC(F)F)cc1 [4-J10, 2-chloro-N-[4-(difluoromethoxy)phenyl]acetamide] | 1.07 |
| C=CC(=O)NCc1ccc(C(=O)N2CCNC(=O)CC2)cc1 [3-I04, N-{[4-(5-oxo-1,4-diazepane-1-carbonyl)phenyl]methyl}prop-2-enamide] | 93.2 |
| CC(Cl)C(=O)N1CCCC(n2ncc(N(C)C(C)C)cc2=O)C1 (stereo not shown) [6-H09, 2-[1-(2-chloropropanoyl)piperidin-3-yl]-5-[methyl(propan-2-yl)amino]-2,3-dihydropyridazin-3-one] | 97.3 |
| N#CC(=Cc1ccc(OC(F)F)cc1)C(=O)Nc1nccs1 [8-F14, 2-cyano-3-[4-(difluoromethoxy)phenyl]-N-(1,3-thiazol-2-yl)prop-2-enamide] | 113 |
| N#CC(=Cc1ccccc1Cl)C(=O)Nc1ccc2c(c1)OCCO2 [8-F03, 3-(2-chlorophenyl)-2-cyano-N-(2,3-dihydro-1,4-benzodioxin-6-yl)prop-2-enamide] | 94.9 |
| COc1ccc(CN2CCN(C(=O)CCl)CC2)cc1 [5-A15, 2-chloro-1-{4-[(4-methoxyphenyl)methyl]piperazin-1-yl}ethan-1-one hydrochloride] | -0.117 |
| C=CC(=O)NC(c1nnc2n1CCC2)C(C)C (stereo not shown) [3-P07, N-(2-methyl-1-{5H,6H,7H-pyrrolo[2,1-c][1,2,4]triazol-3-yl}propyl)prop-2-enamide] | 52.1 |
| O=C(CCl)NCCc1nc2c(s1)CCCCC2 [4-J21, 2-chloro-N-(2-{4H,5H,6H,7H,8H-cyclohepta[d][1,3]thiazol-2-yl}ethyl)acetamide] | 15 |
| C=CC(=O)NCC1CCC2(CCCOC2)O1 (stereo not shown) [2-O13, N-({1,7-dioxaspiro[4.5]decan-2-yl}methyl)prop-2-enamide] | 168 |
| C=CC(=O)N1CCC(n2ccnn2)CC1 [3-K09, 1-[4-(1H-1,2,3-triazol-1-yl)piperidin-1-yl]prop-2-en-1-one] | 65.2 |
| C=CC(=O)N1CCC(Cn2nc(C)cc2C)CC1 [2-C17, 1-{4-[(3,5-dimethyl-1H-pyrazol-1-yl)methyl]piperidin-1-yl}prop-2-en-1-one] | 182 |
| O=C(CCl)NCCc1ccc(Cl)cc1 [4-O12, 2-chloro-N-[2-(4-chlorophenyl)ethyl]acetamide] | 7.11 |
| Cc1ccccc1NC(=O)C(C#N)=Cc1ccc(N2CCCCC2)cc1 [9-E21, 2-cyano-N-(2-methylphenyl)-3-[4-(piperidin-1-yl)phenyl]prop-2-enamide] | 91.8 |
| C=CC(=O)NCc1ccc(C(=O)N2CCC(c3nc(C)no3)C2)cc1 (stereo not shown) [2-P08, N-({4-[3-(3-methyl-1,2,4-oxadiazol-5-yl)pyrrolidine-1-carbonyl]phenyl}methyl)prop-2-enamide] | 52.5 |
| N#CC(=Cc1cccc2c1OCO2)C(=O)Nc1cccc2ccccc12 [8-K12, 3-(1,3-dioxaindan-4-yl)-2-cyano-N-(naphthalen-1-yl)prop-2-enamide] | 63.4 |
| C=CC(=O)NC1CCOC1C (stereo not shown) [1-F06, N-(2-methyloxolan-3-yl)prop-2-enamide] | 74.6 |
| C=CC(=O)N1CCC(C(=O)N(C)Cc2ccc([S+](C)[O-])cc2)CC1 (stereo not shown) [2-D06, N-[(4-methanesulfinylphenyl)methyl]-N-methyl-1-(prop-2-enoyl)piperidine-4-carboxamide] | 76.4 |
